Source: patent US20040224313A1, “Polymorphisms in the human cyp2b6 gene and their use in diagnostic and therapeutic applications” (priority 2000, published 2004)
Where a chain is given by its changes, count along the chain named.

Key:
CYP2B6 [1] = molecular target: T1, CYP2B6 (Homo sapiens, UniProt P20813); conditions: human liver microsomes, homozygous wild-type (Wt) group
T1 sequence (P20813 1-491): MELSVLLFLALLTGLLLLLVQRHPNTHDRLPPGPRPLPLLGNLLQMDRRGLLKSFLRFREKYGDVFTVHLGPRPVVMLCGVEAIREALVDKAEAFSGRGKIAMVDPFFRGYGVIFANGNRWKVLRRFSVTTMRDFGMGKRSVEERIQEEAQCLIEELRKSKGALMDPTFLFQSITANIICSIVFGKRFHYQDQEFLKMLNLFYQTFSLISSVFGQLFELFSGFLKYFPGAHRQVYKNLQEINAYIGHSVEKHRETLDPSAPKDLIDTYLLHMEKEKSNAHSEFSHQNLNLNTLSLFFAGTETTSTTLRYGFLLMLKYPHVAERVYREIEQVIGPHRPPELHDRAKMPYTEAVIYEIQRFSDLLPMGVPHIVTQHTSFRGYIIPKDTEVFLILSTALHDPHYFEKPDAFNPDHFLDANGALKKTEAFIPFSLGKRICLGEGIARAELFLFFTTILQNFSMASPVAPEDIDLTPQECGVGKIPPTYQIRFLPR
Method: (§1) FIG. 4: Analysis of CYP2B6 protein expression (A) and enzymatic function (B). CYP2B6 protein was determined by immunoblotting and the S-mephenytoin N-demethylation to Nirvanol was measured in 92 liver microsome samples. The 5 nonsynonymous CYP2B6 mutations were determined in DNA from the same 92 individuals. Wt indicates the group of 30 individuals with homozygous wild-type genotype; 487 R/C and 487 C/C show the results for individuals heterozygous or homozygous for the exon 9 mutation, respectively. All other mutant genotypes are collectively shown. The average expression and activity of each group is shown as horizontal line. Statistical significance was evaluated by the t-test in comparison to the Wt group: * P<0.05; ** P<0.01.
(§2) The functional significance of the mutations in the CYP2B6 gene (Table 2) was investigated by analyzing expression and enzymatic activity of CYP2B6 in a large human liver bank. A specific monoclonal antibody, MAB-2B6 (Gentest Corp., Woburn, Mass., USA) was used to immunoquantitate microsomal CYP2B6. S-mephenytoin N-demethylation to Nirvanol was measured as a rather CYP2B6-specific pathway. The five nonsynonymous mutations were determined in all samples.

CYP2B6 [2] = conditions: human liver microsomes, heterozygous carriers of R487C (C1459T)
Method: as §1, §2

CYP2B6 [3] = molecular target: T2, CYP2B6 (Homo sapiens, UniProt P20813, R487C); conditions: human liver microsomes, homozygous carriers of R487C (C1459T)
T2 sequence (P20813 1-491 R487C): T1 sequence (P20813 1-491) with R487C
Method: as §1, §2

SMILES: CC[C@@]1(c2ccccc2)NC(=O)N(C)C1=O [S-mephenytoin]
- mean enzyme activity, S-mephenytoin N-demethylation (CYP2B6 [1]): 49.2±49.4 pmoles of nirvanol formed/min*mg
- mean enzyme activity, S-mephenytoin N-demethylation (CYP2B6 [2]): 25.9±15.2 pmoles of nirvanol formed/min*mg
- mean enzyme activity, S-mephenytoin N-demethylation (CYP2B6 [3]): 22.2±8.4 pmoles of nirvanol formed/min*mg
